Consider 3 substances from patent US5457092A, “Methods of promoting bone growth in mammals comprising administration of modified parathyroid hormone” (Gesellschaft fur Biotechnologische Forschung mbH (GBF), priority 1987, dated 1995).

Where two headings read alike, the source gives them in different places.

In one assay the test system is ROS 17/2.8 cells. The experiment in a line: Inhibition of bPTH(1-34)-stimulated cAMP synthesis of intact ROS 17/2.8 cells. Conditions: 30 nM hPTH(28-48) added to 100 nM bPTH(1-34); 1 mM IBMX; 10 min. Type of assay: cell-based, rat. As for the experimental part:
FIG. 9 is a graphical representation showing the cAMP yields [nitrogenic effect of bPTH (1-34].
100 nM bPTH(1-34) were used to stimulate cAMP synthesis of intact ROS 17/2.8 cells (cell density 1.3×10^6 cells/cm^2) in the presence of 1 mM IBMX for 10 min. cAMP yields were determined by radio assay. Based on the conditions mentioned, the cAMP basal value of non-stimulated cells corresponds to 8 pmol/well. This effect of bPTH(1-34) can be inhibited by an additional doses of 30 nM hPTH(28-48) up to about 50%; cf. FIG. 9.

Assay [1] deals with osteoblast enriched rat embryo calvaria cell cultures. The experiment in a line: Cyclic AMP production in rat embryo calvaria cell cultures. The assay is classed as cell-based. Conditions: 100 nM; 15 min; control 29 ± 2.9 pmol/mg of protein. The gist of the method:
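Osteoblast-enriched rat embryo calvaria cultures stimulated with PTH fragments from the central portion of the molecule. Cyclic AMP measured 15 min after stimulation; CK specific activity measured 24 h after stimulation. Values are means ±S.E.M., N≥5, compared with controls by Student's T test.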

The test system is the same in assay [2]. The experiment in a line: DNA synthesis ([3H]thymidine incorporation) in rat embryo calvaria cell cultures. Particulars: for [3H)Thymidine incorporation, effect of fragment (experimental value/control value): 100 nM, 24 h, control 624 ± 73 c.p.m./μg of DNA. The assay is classed as cell-based. In short, it runs like this:
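Cultures stimulated with bPTH (1-84); [3H]thymidine incorporation into DNA measured 24 h after stimulation. Values are means ±S.E.M., N≥5, compared with controls by Student's t test.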
(Dividing cells build labelled thymidine or BrdU into new DNA.)

For assay [3], the system named is rat epiphysial cartilage cell cultures. The experiment in a line: CK specific activity in rat epiphysial cartilage cell cultures. Type of assay: cell-based. Conditions: for CK specific activity: 100 nM, control 225 ± 32. As for the experimental part:
To compare the stimulations seen in osteoblast-like cells (FIGS. 10 and 11) with PTH effects in a cartilage system, cultures of rat epiphysial cartilage cells were incubated with full-length PTH and selected PTH fragments (Table 3). CK activity was stimulated by bPTH(1-84) and hPTH(28-48) but not by hPTH(25-39) or hPTH(34-47). […] The comparison between the complete molecule and the mid-regional fragment hPTH (28-48) is similar to but not identical with the results obtained for calvaria cell cultures (FIGS. 10 and 11) and in the chick sternum chondrocyte system; cf. Biochem. J., 252 (1988) 263-268 (11; Farndale et al.),

Assay [4] deals with ROS 17/2.8 osteoblast-like cells. The experiment in a line: CK specific activity in ROS 17/2.8 osteoblast-like cells. The assay is classed as cell-based, rat. Conditions: control 698 ± 70 nmol/min per mg of protein.
Assay [5] relates to rat organs (epiphysis, diaphysis, kidney). The experiment in a line: CK specific activity in rat organs after i.p. injection. The assay is classed as in vivo. Conditions: for CK specific activity, Kidney / CK specific activity, Epiphysis / CK specific activity, Diaphysis: rat; for CK specific activity, Kidney: control 1.43 ± 0.20; for CK specific activity, Epiphysis: control 15.0 ± 2.2; for CK specific activity, Diaphysis: control 26.0 ± 3.,9; for effect on CK activity in rat organs (in words): 0.875 μg/rat. The procedure: FIG. 13 is a graph showing the time-dependent stimulation by hPTH (28-48) of CK specific activity in rat organs. Female rats (20-25 days old) were injected i.p. with hPTH-(28-48) (1.25 μg/rat). Experimental details are as described for FIG. 10. (a) Diaphysis, (b) epiphysis, (c) kidney. *P<0.05, **P<0.01 versus controls.
FIG. 14 is a graph showing the dose-dependent stimulation of CK specific activity by hPTH (1-34) in rat organs. Female rats (20-25 days old) were injected i.p. with hPTH-(1-34). At 4 h later, rats were killed and extracts were prepared and assayed as described below. Experimental details are as described for FIG. 10 (a) Diaphysis, (b) epiphysis, (c) kidney. *P<0.05, ** P<0.01 versus controls.
FIG. 15 is a graph showing the dose-dependent stimulation of CK specific activity by hPTH (28-48) in rat organs. Female rats (20-25 days old) were injected i.p. with hPTH-(28-48). Experimental details are as described for FIG. 13 (a) Diaphysis, (b) epiphysis, (c) kidney. *P<0.05, **P<0.01 versus controls.
FIG. 16 is a graph showing the […] stimulation by bPTH (1-84) of CK specific activity in rat organs. Female rats (20-25 days old) were injected i.p. with bPTH-(1-84) (3.5 μg/rat). At the times indicated, the rats were killed and the diaphyses (a) and epiphyses (b) of long bones as well as the kidneys (c) were collected and homogenized. Extracts were prepared and assayed as described below. Results are means ±S.E.M for π=5. Statistical significance of differences between treated and control groups by Student's T test: *P<0.05; **P<0.01. Note that the activity scales differ for different organs.
Kidneys, tibia and femur were excised; the epiphyses or diaphyses of the long bones were collected and washed thoroughly with cold 0.9% NaCl. The bones were split open lengthwise and the marrow was scraped out. Organs were homogenized in ice-cold buffer containing 50 mM-Tris/HCl (pH 6.8), 5 mH-magnesium acetate. 2.5 mM-dithiothreitol, 0.4 mM-EDTA and 250 mM-sucrose using a Polytron homogenizer in 10 s bursts with intervening cooling periods. Supernatant extracts were obtained by centrifugation at 12000 g for 5 min at 4° C. CK activity was measured at 30° C. in a Gilford 250 automatic recording spectrophotometer at 340 nm using a coupled assay for ATP, in 0.5 ml of incubation mixture containing 50 mM-imidazole acetate buffer (pH 6.7), 25 mM-phosphocreatine, 20 mM-N-acetylcysteine, 20 mM-D-glucose, 10 mM-magnesium acetate, 5 mM-EDTA, 2 mM-ADP, 2 mM-NAD+, 2 mM-dithiothreitol, 50 μM-diadenosine pentaphosphate (adenylate kinase inhibitor), 5 μg of bovine serum albumin. 1.2 units of glucose-6-phosphate dehydrogenase and 0.8 units of hexokinase. Protein was determined by the Coomassie Brilliant Blue dye-binding method, with bovine serum albumin as the standard.

For the next assay, the system named is renal adenylate cyclase. Conditions: Adv. Protein Chemistry 35 (1982) 323 ff. (Potts et al.), cited from earlier work.
For a further assay, the system named is renal PTH receptor. Particulars: Adv. Protein Chemistry 35 (1982) 323 ff. (Potts et al.); cited from earlier work.
The mark [6] stands for this setting: 4 h after injection of 0.875 μg.

Regarding “hPTH(28-48): mid-regional PTH fragment 28-48, human source (LQDVHNFVALGAPLAPRDAGS; Parathyroid hormone; UniProt P01270 59-79, looked up, fragment)”, the “inhibition of the cAMP synthesis stimulated by bPTH(1-34)” value in the assay with ROS 17/2.8 cells is reported as “about 50%”. Besides, the “Cyclic AMP concentration, effect of fragment (experimental value/control value)” value in assay [1] was determined as 1.22 ± 0.09. Moreover, in assay [2], the “stimulation of DNA synthesis (in words)” value is “maximal” and the “[3H)Thymidine incorporation, effect of fragment (experimental value/control value)” value is 2.82 ± 0.18. Besides, in assay [3], the “stimulation of CK activity (in words)” value was “stimulated” and the CK specific activity is 346 ± 36 nmol/min per mg of protein. Moreover, the “CK specific activity, effect of fragment (experimental value/control value)” value in assay [4] (400 nM) worked out at 1.56 ± 0.08. In addition, in assay [5] (1.25 μg/rat i.p.), the “time of maximal increase of CK activity, diaphysis” value was found to be 1 h and the “time of maximal increase of CK activity, epiphysis” value is reported as 4 h. Besides, the “effect on CK activity after injection (in words)” value in assay [5] (1.25 μg/rat i.p., equivalent to 14 nM) was “increased CK activity”. The “CK activity in diaphysis over time (in words)” value in assay [5] (1.25 μg/rat i.p., 1, 4 and 24 h) is recorded as “significantly increased at all three times measured”. For the same substance, the “CK activity in epiphysis at 1 h (in words)” value in assay [5] (1.25 μg/rat i.p., 1 h) is “significant increase”. For the same substance, in assay [5] (1.25 μg/rat i.p., 24 h), the “CK activity in epiphysis at 24 h (in words)” value was “no significant increase” and the “CK specific activity in kidney at 24 h (in words)” value is “declined to close to the constitutive activity”. Moreover, the “stimulation of CK specific activity in diaphysis at the dose of maximum effect” value in assay [5] (1.25 μg/rat, 4 h later) is listed as “approx. 3 fold”. For the same substance, in assay [5] (i.p., 4 h later), the “dose of maximal effect on CK specific activity” value stood at 1.25 μg/rat. Also, the “dose giving a significant increase in CK specific activity in all organs” value in assay [5] (i.p., 4 h later, diaphysis, epiphysis, kidney) worked out at 0.15 μg/rat. Moreover, in assay [5] (4 h after injection of 1.25 μg), the “CK specific activity, Kidney” value was 2.26 ± 0.34 μmol/min per mg of protein; the “CK specific activity, Epiphysis” value is given as 20.9 ± 3.0 μmol/min per mg of protein; the “CK specific activity, Diaphysis” value is on record as 37.2 ± 3.3 μmol/min per mg of protein. Besides, the “stimulation of renal adenylate cyclase” value in the assay on renal adenylate cyclase is recorded as “does not stimulate renal adenylate cyclase”. Besides, the “stimulation of renal adenylate cyclase” value in the assay on renal adenylate cyclase (listed as hPTh(28-48)) is listed as “will not stimulate renal adenylate cyclase”. Besides, the “binding to the renal PTH receptor” value in the assay on renal PTH receptor was “does not bind to the renal PTH receptor”.

Turning to “hPTH(25-39): PTH fragment 25-39, human source (RKKLQDVHNFVALGA; Parathyroid hormone; UniProt P01270 56-70, looked up, fragment)”, the “Cyclic AMP concentration, effect of fragment (experimental value/control value)” value in assay [1] is 0.87 ± 0.30. In addition, in assay [2], the “stimulation of DNA synthesis (in words)” value is given as “maximal” and the “[3H)Thymidine incorporation, effect of fragment (experimental value/control value)” value came out at 2.96 ± 0.18. Further, in assay [3], the CK specific activity is on record as 268 ± 36 nmol/min per mg of protein. In addition, the “CK specific activity, effect of fragment (experimental value/control value)” value in assay [4] (200 nM) is 1.71 ± 0.08. Moreover, the “effect on CK activity in rat organs (in words)” value in assay [5] (equivalent to 14 nM) is recorded as “significant increase”. In assay [5] (setting [6]), the “CK specific activity, Kidney” value is on record as 3.22 ± 0.78 μmol/min per mg of protein; the “CK specific activity, Epiphysis” value is 24.0 ± 3.2 μmol/min per mg of protein; the “CK specific activity, Diaphysis” value is recorded as 41.8 ± 4.9 μmol/min per mg of protein.

“hPTH(34-47): PTH fragment 34-47, human source; comparative example (FVALGAPLAPRDAG; Parathyroid hormone; UniProt P01270 65-78, looked up, fragment) [reference compound]”: in assay [3], the CK specific activity is 236 ± 32 nmol/min per mg of protein. Further, in assay [4] (500 nM), the “CK specific activity, effect of fragment (experimental value/control value)” value is 1.07 ± 0.10. The “effect on CK activity in rat organs (in words)” value in assay [5] (equivalent to 14 nM) was “no effect”. In assay [5] (setting [6]), the “CK specific activity, Kidney” value is 1.64 ± 0.32 μmol/min per mg of protein; the “CK specific activity, Epiphysis” value is 16.7 ± 2.5 μmol/min per mg of protein; the “CK specific activity, Diaphysis” value is given as 24.9 ± 4.8 μmol/min per mg of protein.
